The source of these data is PubChem BioAssay (NCI).

Each structure is given as a SMILES string.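 Growth conditions: 96-well plates. Treatment: test compound, 48 hours, 5 concentrations. Analysis: linear interpolation between bracketing concentrations; unreached endpoints set to highest concentration. TGI: total growth inhibition.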 Where only a bound is given, the exact number is not on record here.

Holding throughout (test): NCI-60 cell line screen, 48 h
Test [1] concerns BT-549 breast.
For test [2], the system named is MDA-MB-435.
In test [3] the test system is MOLT-4 leukemia.
Test [4] concerns SF-295 CNS.
Test [5] relates to MALME-3M melanoma.
Test [6] relates to HT29 colon.
Test [7] concerns UACC-257 melanoma.
The test system of test [8] is COLO 205 colon.
Test [9] concerns HOP-92 NSCLC.
In test [10] the test system is SNB-75 CNS.

Take `O=C1O[C@H](c2ccc3c(c2)OCO3)[C@H]2CO[C@@H](c3ccc4c(c3)OCO4)[C@@H]12`: the TGI in [1], in test [2], in test [3], in [4], in test [5] and in test [6] was above 100 µM throughout. The TGI in test [7], in test [8] and in test [9] was above 100 µM throughout.

For the molecule `CN1[C@@H]2C[C@@H](OC(=O)[C@H](CO)c3ccccc3)C[C@H]1[C@@H]1O[C@@H]12`, the TGI in test [1], in [2], in [3], in test [5], in test [6] and in [7] was above 100 µM in each case. In addition, the TGI in [8] and in [9] was above 100 µM each time.

For the molecule `CCOC(=O)NC(Nc1ccc([N+](=O)[O-])cc1)(C(F)(F)F)C(F)(F)F`, the TGI in test [1] was above 100 µM; in [10], above 100 µM; in test [2] it was 49.1 µM; in test [3], above 100 µM; in test [4], above 100 µM; in test [5], above 100 µM. Further, the TGI in test [6], in [7], in [8] and in test [9] was above 100 µM each time.

For the molecule `Nc1nc(Cl)cc(NCC2(CO)CCCC2)n1`, the TGI in test [1], in test [10], in test [2], in [3], in test [4] and in [5] was above 100 µM in each case. For the same molecule, the TGI in test [6], in test [7], in [8] and in [9] was above 100 µM in each case.

As to `Cn1c(COC(=O)Nc2ccccc2)c(COC(=O)Nc2ccccc2)c2ccc3cc(Cl)c(Cl)cc3c21`, the TGI in test [1] is 12.6 µM; in test [10] it was 19.2 µM; in [2], 29.1 µM; in test [3], above 75 µM; in test [4], 64.2 µM; in [5], 6.59 µM. Also, the TGI in [6] is 23.6 µM; in [7], 21.6 µM; in [8], 14.5 µM; in test [9] it was 7.54 µM.

Turning to `CC1=NNC(=O)C1C(CC(=O)c1c[nH]c2ccccc12)C(=O)O` (configuration not stated), the TGI in test [1], in test [10], in test [2], in test [3], in test [4] and in [5] was above 100 µM in each case. In addition, the TGI in test [6], in test [7], in test [8] and in test [9] was above 100 µM in each case.

Turning to `Cc1ccc(O)c(-c2cscn2)c1`, the TGI in test [1], in [2], in [3], in test [4], in [5] and in test [6] was above 100 µM in each case. Further, the TGI in test [7], in test [8] and in test [9] was above 100 µM each time.

In the case of `C=C1C(=O)C=C[C@]2(C)CC[C@H]3C(=C)C(=O)O[C@@H]3[C@@H]12`, the TGI worked out at 9.85 µM in test [1]; 3.21 µM in test [2]; 3.52 µM in [3]; 30.6 µM in test [4]; 5.18 µM in test [5]; 3.24 µM in [6]. Moreover, the results for the TGI in test [7], in [8] and in test [9] were 10.5 µM, 2.24 µM and 7.62 µM, respectively.

`CC(C)(Cl)C(Br)CCC(=CCCl)CBr` (mixture of isomers): the TGI in test [1] was 6.24 µM; in test [10], 8.18 µM; in test [2], 3.71 µM; in [3] it was above 21.2 µM; in [4], 13 µM; in test [5], 4.85 µM. Also, the TGI in test [6] was 3.55 µM; in test [7], 6.81 µM; in test [8], 5.15 µM; in [9] it was 4.03 µM.

Regarding `CCC/C(Cl)=N\OC(=O)Nc1ccc(OC(F)(F)F)cc1`, the TGI was 56.6 µM in test [1]; 35.8 µM in test [10]; 49.9 µM in [2]; 4.59 µM in [3]; 31.7 µM in [4]; 4.22 µM in [5]. Moreover, the TGI amounted to 42.4 µM in [6], 39.8 µM in test [7], 3.54 µM in test [8] and 4.48 µM in test [9].

Turning to `Cc1cc(S(=O)(=O)Nc2nc3cc(-c4ccc(Cl)cc4)sc3c(=O)n2N)c(S)cc1Cl`, the TGI is above 100 µM in [1]; above 100 µM in test [10]; above 100 µM in test [2]; 55.3 µM in test [3]; above 100 µM in test [4]; above 100 µM in test [5]. Besides, the TGI in test [6] is above 100 µM; in test [7], above 100 µM; in [8] it was 56.1 µM; in test [9] it was above 100 µM.

For the molecule `C=C(Cl)C(C)(Cl)CCC(Br)C(C)(C)Cl` (configuration not stated), the TGI in [1] is 47.2 µM; in test [10] it was 33.5 µM; in test [2], 39.9 µM; in [3] it was above 100 µM; in [4], 88.6 µM; in test [5], 38.4 µM. Further, the TGI in [6] is 29.5 µM; in [7], 30.5 µM; in [8] it was 31.8 µM; in test [9] it was 36.5 µM.

Take `CCNC(=O)Nc1cccc(NC(=O)NCC)n1`: the TGI in test [1], in test [10], in test [2], in [3], in test [4] and in test [5] was above 100 µM each time. The TGI in test [6], in test [7], in test [8] and in [9] was above 100 µM in each case.

With `On1c(-c2ccccc2)nc2ccccc2c1=S`, the TGI in test [1] is above 100 µM; in [10], above 100 µM; in test [2] it was above 100 µM; in test [3] it was 11.2 µM; in test [4], above 100 µM; in [5], above 100 µM. Further, the TGI in [6], in test [7], in test [8] and in [9] was above 100 µM in each case.

With `COc1ccc2c(c1)CCN1CCc3ccccc3CC21` (configuration not stated), the TGI in test [1] was above 100 µM; in test [10], above 100 µM; in test [2] it was above 100 µM; in test [3], above 100 µM; in test [4] it was 56.1 µM; in test [5] it was above 100 µM. The TGI in test [6] was above 100 µM; in test [7] it was above 100 µM; in test [8], 46.1 µM; in test [9], 68.3 µM.

`[N-]=[N+]=NC1=C(c2ccccn2)C(=O)c2cccc3cccc1c23`: the TGI in test [1] is 67.2 µM; in test [10] it was above 100 µM; in test [2], above 100 µM; in test [3], 6.16 µM; in test [4] it was above 100 µM; in test [5] it was above 100 µM. The TGI in [6] was above 100 µM; in test [7], 98.4 µM; in test [8], above 100 µM; in test [9] it was above 100 µM.

`S=C(Nc1ccc2c(c1)oc1ccccc12)c1cccnc1`: the TGI in test [1] is above 100 µM; in [10], 49.7 µM; in [2], above 100 µM; in [3], above 100 µM; in [4], above 100 µM; in test [5] it was above 100 µM. Further, the TGI in [6], in test [8] and in [9] was above 100 µM each time.

For `COC1C=COC2(C)Oc3c(C)c(O)c4c(O)c(c(C5SCCS5)c(O)c4c3C2=O)NC(=O)C(C)=C/C=C\C(C)C2OC(C)(C)OC(C2C)C(C)C(OC(C)=O)C1C` (configuration not stated), the TGI in [1] is 9.26 µM; in [10], above 100 µM; in test [2] it was 47.9 µM; in [3], above 100 µM; in [4], 28.7 µM; in test [5] it was 36.5 µM. Further, the TGI in [7] is 7.89 µM; in test [8], above 100 µM; in [9] it was 24.9 µM.

As for `Nc1ccc(C(=O)N2CCC[C@H]2CO)c(N)c1`, the TGI in test [1], in test [10], in [2], in test [3], in [4] and in test [6] was above 100 µM in each case. Besides, the TGI in test [7], in [8] and in test [9] was above 100 µM in each case.

On to `CC(C)=CCNc1ncnc2c1ncn2CCC#N`, for which the TGI in [1], in test [10], in test [2], in test [3], in [4] and in test [5] was above 100 µM in each case. Further, the TGI in test [6], in test [8] and in test [9] was above 100 µM throughout.

As to `CN(C)c1ccc(C2SCC(=O)N2c2ccc(Oc3ccc(Cl)cc3)c(Cl)c2)cc1` (configuration not stated), the TGI is 48.2 µM in [1]; 50.9 µM in [10]; 84 µM in [2]; above 100 µM in [3]; 38.4 µM in test [5]; 39.8 µM in test [6]. The values for the TGI in test [7], in test [8] and in test [9] were above 100 µM, 36.2 µM and 45.8 µM, respectively.

Regarding `C=C1CN2CC(=C)CN(C1)CS(=O)(=O)N1CC(=C)CN(CC(=C)C1)S(=O)(=O)N1CC(=C)CN(CC(=C)C1)S(=O)(=O)C2`, the TGI in [1] is above 100 µM; in test [2] it was above 100 µM; in test [3] it was above 100 µM; in [4], above 100 µM; in test [5], 86.4 µM; in test [6], above 100 µM. Further, the TGI in test [7] is 94.4 µM; in [8], above 100 µM; in test [9] it was above 100 µM.

Consider `O=C1c2ccccc2C2(c3ccc(Cl)cc3)N[C@H]3CCCC[C@@H]3N12` (some centres not stated), for which the TGI in test [1], in [10], in test [2], in test [3], in test [4] and in test [6] was above 100 µM in each case. Also, the TGI in test [7], in test [8] and in test [9] was above 100 µM throughout.

With `COc1ccc2c(cnc3c4cc(OC)c(OC)cc4ccc23)c1`, the TGI in [1], in test [2], in [3], in [4], in test [5] and in test [6] was above 100 µM each time. Also, the TGI in [7], in test [8] and in test [9] was above 100 µM throughout.

Take `CCOc1ccc(/C=C2/C(=O)N=C(NC(C)=O)N2C)cc1`: the TGI in [1], in test [10], in test [2], in test [3], in test [4] and in [6] was above 100 µM each time. Also, the TGI in test [7], in [8] and in test [9] was above 100 µM each time.

With `O=C1NC(=O)C(CC2CCCCCCCCCCC2=O)C(=O)N1` (configuration not stated), the TGI in test [1], in test [10], in [2], in [3], in test [4] and in test [6] was above 100 µM throughout. Moreover, the TGI in test [7], in [8] and in test [9] was above 100 µM throughout.

On to `C=C([C@@]1(O)C[C@H]2[C@H](CCC2(OC)OC)[C@@H]2c3ccccc3O[C@@H]21)[Si](C)(C)C`, for which the TGI in test [1], in [10], in [2], in test [3], in test [4] and in [6] was above 100 µM in each case. Also, the TGI in [7], in test [8] and in test [9] was above 100 µM throughout.

On to `CC1CCCC(CC(=O)O)(CC(=O)O)C1` (configuration not stated), for which the TGI in test [1], in [2], in test [3], in test [5], in test [6] and in test [7] was above 100 µM throughout. Moreover, the TGI in test [8] and in test [9] was above 100 µM throughout.
